From paper PMC5225183, “Fingerprinting of neurotoxic compounds using a mouse embryonic stem cell dual luminescence reporter assay” (Archives of Toxicology, 2016)
Where two headings read alike, the source gives them in different places. Marks after values point to notes of the source that are not given here.

Columns and labels:
[1] = test system: ESCs and ESC-derived neurons; test: Dual luminescence reporter test system, all readouts in ESCs and ESC-derived neurons
Excerpt: Fig. 1 Synopsis of experimental protocols. The impact of compounds on neural promoter activity (FLuc, Firefly Luciferase under the control of the Tα1 promoter), general promoter activity (RLuc, Renilla Luciferase under the control of the EF1α promoter), and amount of DNA (PI, propidium iodide fluorescence in cell homogenates) was investigated in undifferentiated mouse embryonic pluripotent stem cells (ESCs) and on ESC-derived neurons. Arrows indicate the time of measurement of the three parameters. a Protocol for testing compounds effects on ESCs. CGR8-2Luc cells were plated on gelatin-coated 96-well plates in maintenance medium (BHK21 medium containing 10 % FCS, L-glutamine, NEAA, P/S, and LIF). Twenty-four hours later, cells were exposed to compounds for forty-eight hours. b Protocol for testing compounds on ESC-derived neurons.
(§1) At day 5, cells were then re-plated (3 × 10^5 cells/cm^2) on polyornithine-coated 96-well plates in N2 medium containing DMEM, N2 supplement, penicillin/streptomycin, and 10 ng/ml basic human fibroblast growth factor (bFGF) (Invitrogen). […] To assess toxicity of compounds on undifferentiated pluripotent stem cells (ESCs), CGR8-2Luc cells were plated at 45,000 cells/cm^2 on 0.1 % gelatin-coated dishes in BHK21 medium, supplemented with 10 % fetal calf serum, L-glutamine, non-essential amino acids, penicillin/streptomycin, and leukemia inhibitory factor (LIF). After 24 h, compounds were added and incubated for 48 h, before luciferase expression and PI fluorescence were analyzed. In all experiments, methylmercury was used as a positive control at a concentration of 5 µM.
Luciferase activities were measured with a Dual-Luciferase™ Reporter system kit. CGR8-2Luc ES cells were lysed in 96-well plates according to the manufacturer’s instructions. Luminescence measurements were performed on a Fluostar Optima reader. Luminescence counts were expressed as percentage of promoter activity normalized by comparison with the control wells treated by DMSO. […] parameters were measured in homogenates of ESCs and in ESC-derived neurons: (1) FLuc, reflecting the activity of early neural promoter Tα1. FLuc increases during neuronal differentiation. Many neurotoxic compounds may affect FLuc expression, either through impact on neuronal differentiation, through changes of neuronal gene expression, or through killing of neurons.
(§2) PI was added to cell homogenates after the luciferase test, at a final concentration of 50 µg/ml and incubated for 2 h. After incubation, fluorescence intensity was measured on a Flexstation 3 microplate reader (Excitation: 544 nm ± 15 nm; Emission: 620 nm ± 15 nm). Results are expressed as percentage of control. Propidium iodide (PI) measures total DNA content as an approximation of the cell number. A decrease in PI fluorescence was interpreted as a decrease in cell number and therefore throughout the text referred to as cytotoxicity.
To describe the shape of different concentration–response curves, arbitrary scores were assigned as follows: 0 for “no change,” 1 for “down-stroke,” 2 for “bimodal profile,” and 3 for “up-stroke” (Fig. S1). A curve was classified as “down-stroke” or “up-stroke” if the change in response values comparative to control was statistically significant (p value <0.05, one-way ANOVA with post hoc Dunnett) with an additional requirement of a 30 % decrease or increase of mean response value relative to controls, respectively. If the absolute change in mean response values was below 30 % the curve was classified as “no change.” A curve was classified as “bimodal” if first up-stroke and subsequently down-stroke was observed.

[2] = test system: ESC-derived neurons
Excerpt: (§3) Fig. 1 Synopsis of experimental protocols. The impact of compounds on neural promoter activity (FLuc, Firefly Luciferase under the control of the Tα1 promoter), general promoter activity (RLuc, Renilla Luciferase under the control of the EF1α promoter), and amount of DNA (PI, propidium iodide fluorescence in cell homogenates) was investigated in undifferentiated mouse embryonic pluripotent stem cells (ESCs) and on ESC-derived neurons. Arrows indicate the time of measurement of the three parameters. a Protocol for testing compounds effects on ESCs. CGR8-2Luc cells were plated on gelatin-coated 96-well plates in maintenance medium (BHK21 medium containing 10 % FCS, L-glutamine, NEAA, P/S, and LIF). Twenty-four hours later, cells were exposed to compounds for forty-eight hours. b Protocol for testing compounds on ESC-derived neurons. CGR8-2Luc cells were co-cultured with MS5 cells to induce neural differentiation in DMEM medium containing 15 % KO-serum, NEAA, β-mercaptoethanol, and P/S. On day 5, cells were detached and seeded on polyornithine-coated plates in DMEM medium containing N2 supplement, bFGF, and P/S; compound exposure was from day 6 to day 8
as §1, with “To test compounds on ESC-derived neurons, neuronal differentiation was carried out as previously described (Suter et al. [2009]; Xu et al. [2014]). Briefly, CGR8-2Luc cells were seeded on irradiated bone marrow-derived stromal MS5 cells and cultivated for 4 days in DMEM medium containing 15 % Knock-out™ Serum Replacement, non-essential amino acids, beta-mercaptoethanol, and penicillin/streptomycin. At” for “At”
as §2, with “After measurement of luciferase activity, DNA quantity was determined by PI assay, as previously described (Xu et al. [2014]). PI was” for “PI was”
(§4) Lowest adverse effect level (LOAEL) was defined as the lowest tested concentrations that lead to a statistically significant decrease for a given read-out (FLuc, RLuc, and PI) compared to baseline. “Baseline” was not in all cases defined by untreated cells, but may also refer to, e.g., a state of increased activity due to low, non-toxic compound concentrations.

[3] = test system: CGR8-2Luc ESCs
Excerpt: as §3
as §1, with “To test compounds on ESC-derived neurons, neuronal differentiation was carried out as previously described (Suter et al. [2009]; Xu et al. [2014]). Briefly, CGR8-2Luc cells were seeded on irradiated bone marrow-derived stromal MS5 cells and cultivated for 4 days in DMEM medium containing 15 % Knock-out™ Serum Replacement, non-essential amino acids, beta-mercaptoethanol, and penicillin/streptomycin. At” for “At”
as §2, with “After measurement of luciferase activity, DNA quantity was determined by PI assay, as previously described (Xu et al. [2014]). PI was” for “PI was”
as §4

[4] = test system: EF1α promoter
Excerpt: (§5) Dual luciferase expressing CGR8-2Luc cells were obtained by transduction of mouse ESC CGR8 cells with the 2K7 EFS-Renilla Luciferase (RLuc)/Talpha1-Firefly Luciferase (FLuc) vector as previously described (Suter et al. [2006], [2009]); EFS corresponds to the short promoter of the eukaryotic translation elongation factor 1 alpha (EF1α), and Talpha1 to the Tubulin α1 (Tα1) promoter. Tα1 was selected as a promoter active in neurons, including early stages of neural differentiation. EF1α was originally selected to function as a constitutive promoter; however, it responds to cellular differentiation as well as to various chemicals, as previously shown (Kern et al. [2013]). Cells were cultured on 0.1 % gelatin-coated dishes in CGR8-2luc maintenance medium: BHK21 medium, supplemented with 10 % fetal calf serum, L-glutamine, non-essential amino acids, penicillin/streptomycin, and leukemia inhibitory factor (LIF). CGR8 cells were grown in a feeder-independent manner (embryonic pluripotent stem cells, ESCs) as described in protocol 1 (Fig. 1) before testing compounds of interest.
as §3
as §1, with “To test compounds on ESC-derived neurons, neuronal differentiation was carried out as previously described (Suter et al. [2009]; Xu et al. [2014]). Briefly, CGR8-2Luc cells were seeded on irradiated bone marrow-derived stromal MS5 cells and cultivated for 4 days in DMEM medium containing 15 % Knock-out™ Serum Replacement, non-essential amino acids, beta-mercaptoethanol, and penicillin/streptomycin. At” for “At”
(§6) Luciferase activities were measured with a Dual-Luciferase™ Reporter system kit. CGR8-2Luc ES cells were lysed in 96-well plates according to the manufacturer’s instructions. Luminescence measurements were performed on a Fluostar Optima reader. Luminescence counts were expressed as percentage of promoter activity normalized by comparison with the control wells treated by DMSO.

[5] = test system: Tubulin α1 (Tα1) promoter
Excerpt: as §5, §3
as §1, with “To test compounds on ESC-derived neurons, neuronal differentiation was carried out as previously described (Suter et al. [2009]; Xu et al. [2014]). Briefly, CGR8-2Luc cells were seeded on irradiated bone marrow-derived stromal MS5 cells and cultivated for 4 days in DMEM medium containing 15 % Knock-out™ Serum Replacement, non-essential amino acids, beta-mercaptoethanol, and penicillin/streptomycin. At” for “At”
as §6

[6] = Table S1, three classes; ref per compound in the footnotes of Table S1; cited from earlier work
[7] = test system: Tubulin α1 (Tα1) promoter; test: cells
Excerpt: as §5, §3
as §1, with “To test compounds on ESC-derived neurons, neuronal differentiation was carried out as previously described (Suter et al. [2009]; Xu et al. [2014]). Briefly, CGR8-2Luc cells were seeded on irradiated bone marrow-derived stromal MS5 cells and cultivated for 4 days in DMEM medium containing 15 % Knock-out™ Serum Replacement, non-essential amino acids, beta-mercaptoethanol, and penicillin/streptomycin. At” for “At”
as §6

[8] = cited from earlier work
[9] = ESC-derived neurons, 48 h exposure, PI assay (cytotoxicity)
[10] = undifferentiated ESCs, 48 h exposure, PI assay (cytotoxicity)
[11] = ESC-derived neurons, 48 h exposure
[12] = undifferentiated ESCs, 48 h exposure
[13] = undifferentiated ESCs, 48 h exposure, lowest tested concentration with statistically significant decrease

SMILES	class based on clinical evidence for neurotoxicity [6]	Number of non-cytotoxic changes ([1]; mouse, 48 h)	LOAEL Neurons DNA [2, 9]	LOAEL ESC DNA [3, 10]	LOAEL Neurons EF1α [4, 11]	LOAEL ESC EF1α [4, 12]	LOAEL ESC Tα1 [5, 13]	LOAEL Neurons Tα1 [7, 11]	result in the dual luminescence reporter test system [1]	other results
O=C(O)c1cc[c]([Hg][Cl])cc1 [4-chloromercuric benzoic acid]	Possibly (developmental)									Number of non-cytotoxic changes [1]: 1; LOAEL Neurons DNA [2]: 100 µM; LOAEL ESC DNA [3]: 5 µM; LOAEL ESC EF1α [4]: 5 µM; LOAEL Neurons EF1α [4]: 100 µM; LOAEL ESC Tα1 [5]: 5 µM; LOAEL Neurons Tα1 [7]: 10 µM
CN(C)CCCN1c2ccccc2Sc2ccc(Cl)cc21 [Chlorpromazine]	Well-established (developmental)	1	20 µM	20 µM	2 µM	20 µM	20 µM	1 µM		
OC[C@@H](O)[C@@H](O)[C@H](O)[C@H](O)CO [D-mannitol]	Non-neurotoxic	0	>50 µM	>50 µM	>50 µM	>50 µM	>50 µM	>50 µM	negative	
CC(C)Cc1ccc(C(C)C(=O)O)cc1 (centres unmarked) [Ibuprofen]		0	>50 µM	>50 µM	>50 µM	>50 µM	>50 µM	>50 µM	negative	Concentration in humans ([8]; ref Dewland et al. ([2009])): 150^a µM
O=C(O)c1cccnc1 [Nicotinic acid]	Non-neurotoxic	0							negative	LOAEL Neurons DNA ([2]; mouse): >50 µM; LOAEL ESC DNA ([3]; mouse): >50 µM; LOAEL ESC EF1α ([4]; mouse): >50 µM; LOAEL Neurons EF1α ([4]; mouse): >50 µM; LOAEL ESC Tα1 ([5]; mouse): >50 µM; LOAEL Neurons Tα1 ([7]; mouse): >50 µM
N[C@@H](CC(=O)N1CCn2c(nnc2C(F)(F)F)C1)Cc1cc(F)c(F)cc1F [Sitagliptin]		0	>50 µM	>50 µM	>50 µM	>50 µM	>50 µM	>50 µM		Concentration in humans ([8]; ref Zimmer et al. ([2014])): 1.9^k µM
CCC[C@H](NC(=O)[C@@H]1[C@H]2CCC[C@H]2CN1C(=O)[C@@H](NC(=O)[C@@H](NC(=O)c1cnccn1)C1CCCCC1)C(C)(C)C)C(=O)C(=O)NC1CC1 [Telaprevir]		0	50 µM	50 µM		50 µM	50 µM	50 µM		LOAEL Neurons EF1α ([4]; mouse, 48 h): 50 µM; Concentration in humans ([8]; in vivo): 5.1^k µM
